Earlier results, collected in patent US20210213090A1, “COMPOSITIONS, USES AND METHODS FOR TREATMENT AND/OR PREVENTION OF ELEVATED CHOLESTEROL, HYPERCHOLESTEROLEMIA, AND CARDIOVASCULAR DISEASE” (Nutraceutical Holdings Inc., priority 2018, published 2021).

Test system: LDL-C / cholesterol
Settings: human, in vivo

COC1=C(OC)C(=O)C(C/C=C(\C)CC/C=C(\C)CC/C=C(\C)CC/C=C(\C)CC/C=C(\C)CC/C=C(\C)CC/C=C(\C)CC/C=C(\C)CC/C=C(\C)CCC=C(C)C)=C(C)C1=O [coenzyme Q10, ubiquinone]
effect of supplementation on statin-related muscle symptoms, in words: decreases statin-related mild-to-moderate muscle symptoms
